Experimental data from publication PMC6435586 (Frontiers in Pharmacology, 2019).
Where no end group is shown, it is not given here.

Assay: Serum stability assay
Format: in vitro ADME, human
Settings: peptide 6.6 μM
Protocol: The serum stability of the peptides was tested using human male serum (Sigma, USA), as previously described ([Chan et al., 2011]). All peptides were tested at a final concentration of 6.6 μM after dilution from a stock solution at 200 μM. The serum was centrifuged at 17,000g for 10 min to remove the lipid component, and the supernatant incubated at 37°C for 15 min, prior to conducting the assay. The peptides were incubated in serum or phosphate-buffered saline (PBS) at 37°C, and aliquots were taken at 0, 3, 8, and 24 h (40-μl aliquots were taken in triplicate). The aliquots of serum were quenched with 40 μl of 6 M urea and incubated for 10 min at 4°C. The aliquots were then quenched with 40 μl of 20% trichloroacetic acid (TCA) and incubated for another 10 min at 4°C to precipitate serum proteins. Finally, samples were centrifuged at 17,000g for 10 min, and 90 μl of the supernatant was analyzed on reversed-phase HPLC using a Phenomenex Jupiter Proteo C12 analytical column (150 mm × 2.00 mm, 4 μm, 90 Å, Phenomenex, Torrance, CA, USA) and a linear gradient of solvent B [90% acetonitrile/10% H2O, 0.045% trifluoroacetic acid (TFA)] at a flow rate of 0.4 ml/min using an Agilent 1260 Infinity system (Agilent Technologies, Hanover, Germany). The control samples contained equivalent amounts of the peptides in PBS and were subjected to the same treatment procedure. The stability at each time point was calculated based on the area of the RP-HPLC peaks following incubation with serum at 214 nm as a percentage of the area of 0-h serum-treated peptides ([Chan et al., 2013]).

In the case of QMARKADDAAG-NH2 [CTX-2], the “relative stability in human serum among the fragments (in words)” value (human male serum, 37°C, 0-24 h, RP-HPLC at 214 nm) is reported as “most stable of the peptides tested”.
In the case of MAMPAFTTDH-NH2 [CTX-1], the “detection of peptide in human serum over time” value (human male serum, 37°C, 24 h, RP-HPLC at 214 nm) is reported as “could be detected up to 24 h” and the remaining at 8 h, 6.6 μM (lipid component removed by centrifugation, human male serum (lipid removed by centrifugation, pre-incubated 15 min at 37°C), 8 h, RP-HPLC C12 peak area at 214 nm as % of 0-h serum-treated peptide, triplicate, mean, read-out: peptide remaining at the 8-h time point in human serum) is reported as > 18%.
With YGPQALAR-NH2 [CTX-4] the remaining at 3 h, 6.6 μM (lipid component removed by centrifugation, human male serum (lipid removed by centrifugation, pre-incubated 15 min at 37°C), 3 h, RP-HPLC C12 peak area at 214 nm as % of 0-h serum-treated peptide, triplicate, mean, read-out: peptide remaining after 3 h in human serum) was < 10%.
